Measurements as given in patent US20240100072A1, “SUBCUTANEOUSLY ADMINISTERED TREATMENTS FOR ADVANCED PARKINSON'S DISEASE” (AbbVie Inc., priority 2021, published 2024).

Columns and labels:
[1] = Metabolism and elimination; conditions: in vivo; for half-life: human
Text: Levodopa is mainly eliminated via metabolism by the aromatic amino acid decarboxylase (AAAD) and the catechol-O-methyl-transferase (COMT) enzymes. Other routes of metabolism are transamination and oxidation. The decarboxylation of levodopa to dopamine by AAAD is the major enzymatic pathway when no enzyme inhibitor is co-administered. O-methylation of levodopa by COMT forms 3-O-methyldopa. […] These 2 metabolites are primarily eliminated in the urine unchanged or as glucuronide conjugates.

plasma proteins = experiment: Distribution: erythrocyte/plasma partitioning, plasma protein binding, blood-brain barrier; format: in vitro ADME
Text: Levodopa is transported into the brain by the carrier mechanism for large neutral amino acids.

half-life [1] [min]	binding to plasma proteins (plasma proteins) [%]	partitioning ratio between erythrocytes and plasma (plasma proteins)	unchanged drug as share of the total urinary excretion [1] [%]	blood-brain barrier passage (plasma proteins)	Structure (SMILES)
~90	< 10	approximately 1			N[C@@H](Cc1ccc(O)c(O)c1)C(=O)O [levodopa, L-3,4-dihydroxyphenylalanine]
~120			30	does not cross the blood-brain barrier	C[C@@](Cc1ccc(O)c(O)c1)(NN)C(=O)O [carbidopa]
